Columns and labels:
[1] = system: δ802- and γ-ENaC subunits; test: Immunoblot of cleavage of tagged δ802- and γ-ENaC subunits in oocytes by serine proteases; type: biochemical, human; details: 10 μg/ml, 45 minutes at room temperature
Experimental: Figure 3 Activation of δ802-containing ENaC channels by serine proteases. (A) Activation of δ802βγ ENaC expressed in Xenopus oocytes by two-chain urokinase plasminogen activator (tc-uPA). ENaC activity was measured at the membrane potential of -100 mV at defined time points post incubation with 10 μg/ml tc-uPA. n = 9-15. mean ± s.e.m. * P<0.05 vs data at the zero minute (min). (B) Time course of stimulatory effects of plasmin on δ802βγ-ENaC activity. n=12. * P<0.05. (C) Identification of subunit responsible for plasmin activation. Fold of amiloride-sensitive current (ASI) of ENaC-associated current in the presence of plasmin over that in the absence of plasmin was computed for oocytes expressing δ802+β+γ (δβγ), δ802 alone (δ), δ802+β(δβ), and δ802+γ (δγ). n = 12-15. * P<0.05. (D) Inhibitory effects of α-13 peptide on δ802αβγ- (δαβγ) and αβγ-ENaC activity post treatment of plasmin and aprotinin. Currents (I) at -100 mV were compared in the absence of amiloride (basal, open bar), presence of α-13 peptide (α13, closed bar), and amiloride (amil, grey bar). n=5. * P<0.05 vs basal currents, & P < 0.05 vs those in the presence of α-13 peptide. (E) Fractions of α-13 sensitive currents in cells pre-treated with plasmin and aprotinin. n=8. Control, without pre-treatment. (F) Cleavage of V5-tagged δ802- and γ-ENaC subunits by serine proteases. NI, non-injected oocytes as negative controls for ENaC expression. Oocytes incubated with chymotrypsin (CT, 10 μg/ml), plasmin (PI, 10 μg/ml) for 45 minutes at room temperature. Cells treated with the same volume of saline (‑) were controls for serine proteases.

δ802αβγ-ENaC = biological target: T1, δ802αβγ-ENaC (Homo sapiens, UniProt P51168+P51170); test: Two-electrode voltage clamp of δ802αβγ-ENaC expressed in Xenopus oocytes; type: cell-based; details: oocytes pre-treated, currents at -100 mV, n=5, Figure 3D
T1 construct: We characterized full-length human δ802-ENaC expressed in both Xenopus oocytes and humanized transgenic mice; expressed in transfected cells; host or cells: Xenopus laevis oocytes injected with cRNA (pGEM HE vector)
T1 sequence (P51168 1-640): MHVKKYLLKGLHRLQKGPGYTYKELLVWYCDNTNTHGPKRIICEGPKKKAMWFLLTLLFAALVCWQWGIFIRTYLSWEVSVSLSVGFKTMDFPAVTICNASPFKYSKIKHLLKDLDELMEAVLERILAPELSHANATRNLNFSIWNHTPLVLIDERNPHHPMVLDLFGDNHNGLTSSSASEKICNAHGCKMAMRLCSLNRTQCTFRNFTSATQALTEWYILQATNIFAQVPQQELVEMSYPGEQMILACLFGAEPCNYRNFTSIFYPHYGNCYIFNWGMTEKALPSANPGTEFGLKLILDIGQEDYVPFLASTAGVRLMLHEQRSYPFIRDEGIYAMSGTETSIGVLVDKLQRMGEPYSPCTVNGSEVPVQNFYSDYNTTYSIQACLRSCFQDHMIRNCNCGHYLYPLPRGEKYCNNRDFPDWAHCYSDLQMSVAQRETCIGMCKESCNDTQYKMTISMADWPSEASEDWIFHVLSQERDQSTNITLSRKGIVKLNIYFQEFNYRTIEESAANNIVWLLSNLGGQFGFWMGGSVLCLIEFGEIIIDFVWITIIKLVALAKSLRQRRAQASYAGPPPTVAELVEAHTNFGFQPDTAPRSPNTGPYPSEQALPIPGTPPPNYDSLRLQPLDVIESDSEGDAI
T1 sequence (P51170 1-649): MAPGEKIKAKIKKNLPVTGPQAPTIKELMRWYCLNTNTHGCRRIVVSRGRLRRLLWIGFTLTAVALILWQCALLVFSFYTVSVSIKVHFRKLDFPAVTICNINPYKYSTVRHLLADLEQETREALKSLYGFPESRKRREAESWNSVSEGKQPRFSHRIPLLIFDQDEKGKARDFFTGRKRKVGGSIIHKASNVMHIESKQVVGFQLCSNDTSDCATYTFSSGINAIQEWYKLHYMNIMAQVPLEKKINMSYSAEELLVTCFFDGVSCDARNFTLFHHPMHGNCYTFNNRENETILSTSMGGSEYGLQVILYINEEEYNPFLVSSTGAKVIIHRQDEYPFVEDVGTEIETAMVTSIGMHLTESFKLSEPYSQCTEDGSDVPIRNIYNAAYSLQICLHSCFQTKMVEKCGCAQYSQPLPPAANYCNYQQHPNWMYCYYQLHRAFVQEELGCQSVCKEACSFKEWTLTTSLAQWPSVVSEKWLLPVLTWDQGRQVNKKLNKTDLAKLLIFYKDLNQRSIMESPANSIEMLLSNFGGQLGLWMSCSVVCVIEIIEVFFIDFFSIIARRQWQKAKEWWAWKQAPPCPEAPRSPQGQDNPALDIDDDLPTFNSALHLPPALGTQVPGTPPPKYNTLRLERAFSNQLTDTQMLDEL
Experimental: (§1) Cloning, in vitro transcription, and heterologous expression of δ802 ENaC and two-electrode voltage clamping assay. δ802 and other ENaC subunits were generated in human ENaC cDNAs cloned into a pGEM HE vector [4], [76]. cRNAs of human α, β, and γ ENaC were prepared as described previously. The stoichiometry of native ENaC complexes is unclear to date. Based on the studies in the last decade, several models have been proposed for αβγ ENaC channels: 1α1β1γ, 2α1β1γ, 3α3β3γ. Based on the EM structure of human αβγ ENaC [35], the currently acceptable model of human αβγ ENaC complexes is heterotrimeric (1α1β1γ). Thus we microinjected δ802:β:γ in a 1:1:1 subunit ratio. Oocytes were surgically removed from appropriately anesthetized adult female Xenopus laevis (Xenopus Express). Briefly, the ovarian tissue was removed from the frog under anesthesia by tricaine-S (Western Chemicals) through a small incision in the lower abdomen. Ovarian lobes were removed and digested in OR-2 calcium-free medium (in mM: 82.5 NaCl, 2.5 KCl, 1.0 MgCl2, 1.0 Na2HPO4, and 10.0 HEPES, pH 7.5) with the addition of 2 mg/ml collagenase (Roche, Indianapolis). Defolliculated oocytes were injected with ENaC cRNAs into the cytosol (25 ng per oocyte in 50 nl of RNase-free water) and incubated in regular OR-2 medium at 18°C. The two-electrode voltage-clamp technique was used to record whole-cell currents 48 h post injection. Oocytes were impaled with two electrodes filled with 3M KCl, having resistance of 0.5 - 2 MΩ. A TEV-200A voltage-clamp amplifier (Dagan) was used to clamp oocytes with concomitant recording of currents. Two reference electrodes were connected to the bath. The continuously perfused bathing solution was ND-96 medium (in mM: 96.0 NaCl, 1.0 MgCl2, 1.8 CaCl2, 2.5 KCl, and 5.0 HEPES, pH 7.5). Whole-cell currents were recorded as previously reported. Experiments were controlled by pCLAMP 10.7 software (Molecular Devices), and currents at -40 mV, -100 mV, and +80 mV were continuously monitored with data recorded at intervals of 10 sec. Data were sampled at the rate of 200 Hz and filtered at 50 Hz.

human αβγ-ENaC = biological target: T2, human αβγ-ENaC (Homo sapiens, UniProt P37088+P51168+P51170); test: Two-electrode voltage clamp of αβγ-ENaC expressed in Xenopus oocytes; type: cell-based; details: oocytes pre-treated, currents at -100 mV, n=5, Figure 3D
T2 construct: expressed in transfected cells; host or cells: Xenopus laevis oocytes injected with cRNA (pGEM HE vector)
T2 sequence (P37088 1-669): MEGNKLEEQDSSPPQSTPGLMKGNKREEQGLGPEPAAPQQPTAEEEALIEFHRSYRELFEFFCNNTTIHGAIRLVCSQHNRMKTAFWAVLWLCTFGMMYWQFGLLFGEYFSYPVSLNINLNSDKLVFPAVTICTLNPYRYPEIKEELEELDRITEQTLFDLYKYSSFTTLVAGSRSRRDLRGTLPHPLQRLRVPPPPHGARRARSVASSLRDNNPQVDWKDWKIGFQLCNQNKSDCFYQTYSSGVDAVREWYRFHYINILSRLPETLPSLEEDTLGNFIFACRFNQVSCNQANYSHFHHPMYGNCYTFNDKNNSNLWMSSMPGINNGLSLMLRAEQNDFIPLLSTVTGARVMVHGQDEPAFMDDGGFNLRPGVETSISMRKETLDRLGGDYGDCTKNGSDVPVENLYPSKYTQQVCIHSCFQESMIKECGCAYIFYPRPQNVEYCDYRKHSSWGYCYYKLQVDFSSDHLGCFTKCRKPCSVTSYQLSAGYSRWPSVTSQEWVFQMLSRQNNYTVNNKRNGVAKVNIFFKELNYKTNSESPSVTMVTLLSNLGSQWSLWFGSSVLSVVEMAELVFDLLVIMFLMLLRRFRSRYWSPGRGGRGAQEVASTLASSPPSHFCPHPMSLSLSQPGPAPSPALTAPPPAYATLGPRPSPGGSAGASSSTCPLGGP
T2 sequence (P51168 1-640): T1 sequence (P51168 1-640)
T2 sequence (P51170 1-649): T1 sequence (P51170 1-649)
Experimental: as §1

chymotrypsin
cleavage of δ802 subunit [1]: Neither chymotrypsin nor plasmin nor endogenous furin cleaved the δ802 subunit

aprotinin
effect of pre-treatment on δ802αβγ-ENaC activity (δ802αβγ-ENaC): did not alter the current amplitude significantly
effect of pre-treatment on αβγ-ENaC activity (human αβγ-ENaC): did not alter the current amplitude significantly

— PMC6857051, “Proliferative regulation of alveolar epithelial type 2 progenitor cells by human Scnn1d gene” (Theranostics, 2019)
